± gives the expanded uncertainty stated by the source.
Details: Liquid, Closed cell (Static) method

CC(=O)N(C)C [N,N-dimethylethanamide]
Details | vapor or sublimation pressure [kPa]
323.15 K | 1.158 ± 0.026
333.15 K | 1.982 ± 0.028
343.15 K | 3.271 ± 0.033
353.15 K | 5.193 ± 0.041
363.15 K | 8 ± 0.052
373.15 K | 12 ± 0.069
383.15 K | 17.55 ± 0.091
393.15 K | 25.03 ± 0.12
403.15 K | 35.04 ± 0.16
413.15 K | 48.09 ± 0.21
423.15 K | 64.73 ± 0.28
